What was measured:
MCP–1 = test: kidney MCP–1 mRNA (qPCR) in LPS induced sepsis in mice; format: in vivo, C57BL/6N mice; conditions: compound i. p. 100 mg/kg bw 2 h before LPS, 24 h after LPS, vs. LPS group
Method: (§1) Samples were stored at -80°C till further analysis. […] Plasma was generated by centrifugation at 4000 g at 4°C and stored at -80°C till further analysis.
(§2) Tissue sections were stored in RNA-later immediately after organ retrieval. Total RNA was extracted using the RNeasy mini kit system (Qiagen, Hilden, Germany) and transcribed using Superscript II Reverse transcriptase (Invitrogen). Quantitative (q) PCR was performed on […] (Roche Diagnostics, Penzberg, Germany) using FastStart Sybr-Green chemistry. Gene-specific primers for IL–6 (Quantitec QT00098875, Qiagen) and MCP–1 (Quantitec QT00167832, Qiagen) were used for the gene of interest and HPRT served as house keeping gene for normalization (Quantitec QT00166768, Qigaen). Quantification was carried out using qgene software.

IL–6 = test: kidney IL–6 mRNA (qPCR) in LPS induced sepsis in mice; format: in vivo, C57BL/6N mice; conditions: compound i. p. 100 mg/kg bw 2 h before LPS, 24 h after LPS
Method: as §1, §2

COX–2 [1] = conditions: cited from earlier work
[2] = i.p. 50 mg/kg bw, LPS 37.5 mg/kg bw, 28–42 h post LPS administration; cited from earlier work
COX–2 protein [3] = test: COX–2 expression in HCA–7 cells (Western Blot); format: cell-based, human; conditions: 24 h, vs. control
COX–2 [4] = target: T1, COX–2 (Homo sapiens, UniProt P35354); test: PGE2 formation in LPS stimulated primary human monocytes (24 h, LC-MS); format: cell-based
T1 sequence (P35354 18-604): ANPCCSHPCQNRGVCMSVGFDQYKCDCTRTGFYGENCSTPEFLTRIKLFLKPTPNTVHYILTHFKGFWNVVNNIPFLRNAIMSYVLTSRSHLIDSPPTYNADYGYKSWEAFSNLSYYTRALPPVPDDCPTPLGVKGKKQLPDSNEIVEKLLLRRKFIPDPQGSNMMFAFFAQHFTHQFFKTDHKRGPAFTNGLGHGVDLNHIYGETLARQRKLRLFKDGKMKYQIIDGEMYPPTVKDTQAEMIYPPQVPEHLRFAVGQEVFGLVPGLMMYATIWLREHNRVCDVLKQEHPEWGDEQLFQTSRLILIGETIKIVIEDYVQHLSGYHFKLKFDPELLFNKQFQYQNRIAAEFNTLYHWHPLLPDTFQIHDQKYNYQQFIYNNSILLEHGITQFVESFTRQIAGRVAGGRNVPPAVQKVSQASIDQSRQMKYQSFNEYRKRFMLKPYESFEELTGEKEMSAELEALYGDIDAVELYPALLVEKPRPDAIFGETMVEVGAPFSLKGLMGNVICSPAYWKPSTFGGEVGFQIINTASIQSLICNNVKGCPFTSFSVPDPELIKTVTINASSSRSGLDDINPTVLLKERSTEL

[5] = single soy meal containing 3.6 μmol total genistein/kg bw; cited from earlier work
COX–2 protein [6] = test: COX–2 expression in LPS stimulated primary human monocytes (Western Blot); conditions: 24 h, vs. control

## O=c1cc(-c2ccc(O)cc2)oc2cc(O)cc(O)c12 [Apigenin, apigenin]
MCP–1
  kidney MCP–1 mRNA levels: did not see an effect
IL–6; vs. LPS group
  kidney IL–6 mRNA expression: did not see an effect
COX–2 [1]; read-out: IC50, RAW 264.7 cells
  IC50: […]
[2]
  mortality: reduced mortality

## O=c1c(-c2ccc(O)cc2)coc2cc(O)cc(O)c12 [Genistein, genistein]
COX–2 protein [3]
  COX-2 Expression, HCA-7 cell line: 100 μM:COX–2 ↓
COX–2 protein [3]; listed as genistein
  COX-2 Expression, HCA-7 cell line: decreased COX–2 expression
COX–2 [4]; IC50 (95% CI), primary monocytes, LPS stimulated, calculated based on PGE2, n = 3, 24 h
  IC50: 7.4 µM
COX–2 [1]
  PGE2 formation / levels, RAW 264.7 cells: reduced PGE2 formation
[5]
  maximal plasma concentrations (free and conjugated form): 4 µM

## Oc1ccc(/C=C/c2cc(O)cc3c2[C@@H](c2cc(O)cc(O)c2)[C@H](c2ccc(O)cc2)O3)cc1 [ε-Viniferin, ε-viniferin]
COX–2 protein [3]
  COX-2 Expression, HCA-7 cell line: no effect (up to 1 μM)
COX–2 [4]; up to 1 μM
  inhibition, primary monocytes: inhibition < 50% (up to 1 μM)
IL–6
  further increase of kidney IL–6 mRNA expression in comparison to LPS group: 28 fold
COX–2 protein [6]
  COX-2 Expression, primary monocytes: no effect (up to 1 μM)
